This test relates to spermatozoa. Briefly: Sperm separation by chemotaxis in the two-compartment device (aggregation in compartment 1a). The test is classed as cell-based. The following applies: for percentage of aggregated spermatozoa in compartment 1a by chemotaxis (net, Δ vs control): 6 million S/ml, 10 pM progesterone, 20 minutes incubation. As for the experimental part:
Separation of mobile spermatozoa (S) of seminal plasma is done by the Percoll technique. A volume of about 2 ml semen is used, which is deposited on 1 ml Percoll gradient (lower layer: 500 μl Percoll 95%, upper layer: 500 μl of Percoll 47.5%, in HAM-F10). After centrifuging 20 minutes at 1800 rpm, the cell pellet is recovered and washed twice by centrifugation for 7 min at 1000 rpm, with HAM-F10 medium. Finally, the recovered pellet is suspended in 1 ml of HAM-F10 medium, cell count is performed in a cell count chamber, and volume is adjusted in order to obtain a concentration of 8 million S/ml. S capability is increased in HAM-F10 medium supplemented with 1% human serum albumin (HSA) for 4 hours a 37° C., under 5% CO2 atmosphere in air.
When capacitation time is finished, S concentration is adjusted in order to obtain 6 million mobile S/ml, and two devices are set up as described in the preceding section (FIGS. 1-3), one without attractant as negative control, and the other with progesterone as attractant.
To set up the device control, a device as described in FIGS. 1 to 3, proceed as follows: 1) the plug is placed in compartment 1a, where culture medium (HAM-F10/1%HSA) is placed, 2) the bridge linking both compartments is filled with culture medium, 3) S suspension is placed in compartment 1b (130 μl of the solution of 6 million mobile S/ml) and this compartment is closed with the plug, 4) compartment 1a is unplugged and filled with culture medium (130 μl).
For device set up with the attractant, another device is prepared as described in FIGS. 1 to 3, like the device control but replacing culture medium with a 10 pM Progesterone solution diluted in culture medium. Once both devices are set up (“Control” and “Attractant”), they are incubated for 20 minutes at 37° C., under 5% CO2 atmosphere in air.
To take the device apart and recover the best spermatozoa, the compartment solution (1a) containing culture medium or attractant is removed. On the spermatozoa suspension removed from compartment 1a of both devices (control and attractant) cell count is performed in a cell count chamber. Then the difference in percentage of S found in each of these two compartments is determined, which enables to value net percentage of S migrating to the attractant-containing compartment (“Δ”).

The values that follow come from US8993310B2, “Device for diagnosis of physiologic status and/or selection of the best spermatozoa of a semen sample based on chemotaxis, and procedure of use thereof” (Consejo Nacional de Investigaciones Cientificas y Technicas …, priority 2009, dated 2015).

Entries after “also recorded” stand apart in the source; their conditions may differ.

For the compound `CC(=O)[C@H]1CC[C@H]2[C@@H]3CCC4=CC(=O)CC[C@]4(C)[C@H]3CC[C@]12C` [progesterone], the “percentage of aggregated spermatozoa in compartment 1a by chemotaxis (net, Δ vs control)” value was “about 10%”. Where the note is “listed as Progesterone”, the “percentage of aggregated spermatozoa in compartment 1a by chemotaxis (net, Δ vs control)” value amounted to 9±0.4%. Besides, the “sperm aggregation in a decreasing versus an increasing gradient of progesterone” value (decreasing gradient of attractant compared with increasing gradient (FIG. 10)) is recorded as “similar”. Further, for the setting “equal concentration of hormone in both compartments 1a and 1b (FIG. 10)”, the “sperm aggregation in the absence of gradient of progesterone” value is on record as “sperm aggregation is reduced; also recorded: no sperm aggregation observed”.
Consider `C[C@H]1O[C@@H](n2cnc3c(N)ncnc32)C[C@@H]1O` [ddAdo], for which the “sperm aggregation in compartment 1a by chemotaxis when cells were previously treated with inhibitor or antibody” value (cells pre-treated, progesterone as attractant (FIGS. 8 and 9)) is “no sperm aggregation due to chemotaxis is seen”.
